For data set [1], the system named is cancer and healthy cell lines. Put plainly: Cytotoxicity across cell-line panel. It is filed as cell-based.
For data set [2], the system named is Myocobacterium tuberculosis H37Rv, Mycobacterium avium 2285, Mycobacterium smegmatis (ATCC607). Put plainly: Antimycobacterial activity. It is filed as cell-based, Mycobacterium spp.
The conditions of data set [3]: mouse; ref [10],[18]; cited from earlier work.
Data set [4] relates to normal cells / cancer cells. Conditions: selected solid cancer cell lines; ref [10]; cited from earlier work.
The test system of data set [5] is DPAGT1. As to conditions: ref [10]; cited from earlier work.
For a further data set, the system named is HPNE. The experiment in a line: MTT cytotoxicity assay, HPNE. It is filed as cell-based. Conditions: HPNE, 72 h, read-out: IC50 HPNE.
Data set [6] deals with MraY, WecA, AglH, and DPAGT1. The experiment in a line: Phosphotransferase panel. In kind it is biochemical. As to conditions: at 50 μM concentration.
Data set [7] deals with PD002. The experiment in a line: Kinetic proliferation assay. It is filed as cell-based, human.
Data set [8] relates to PD002. Put plainly: Checkerboard synergy of CPPB with paclitaxel. In kind it is cell-based, human. Conditions: for CA and CB, concentration in combination: growth–no growth interface.
The next data set relates to SiHa. Put plainly: Scratch. In kind it is cell-based, human. As to conditions: scratch assay, 0.2 μM.
A further data set has as its system Snail. Put plainly: Snail expression. It is filed as cell-based. As to conditions: 0.05 and 2.0 μM.
For data set [9], the system named is PD002. Put plainly: Scratch. It is filed as cell-based, human. Conditions: PD002, 24h, 0.2 μM; untreated 63%.
The next data set deals with HCT-116. The experiment in a line: Scratch. In kind it is cell-based. As to conditions: scratch assay.
The test system of data set [10] is PD002. Put plainly: Cell migration assay using transwell. As to conditions: 0.1 μM, 18h; vs tunicamycin and gemcitabine at 0.1 μM. It is filed as cell-based, human.
For data set [11], the system named is DPAGT1. The experiment in a line: DPAGT1 protein expression. It is filed as cell-based.
For a further data set, the system named is E-Cadherin. The experiment in a line: E-Cadherin expression. In kind it is cell-based.
Another data set addresses DPAGT1 (Human) (Homo sapiens, UniProt Q9H3H5). Put plainly: DPAGT1 assay. In kind it is biochemical.
The test system of a further data set is MraY/MurX. As to conditions: read-out: IC50 MraY; previously identified; ref [9]; cited from earlier work.
Data set [12] relates to PD002. Put plainly: MTT cytotoxicity assay, PD002. In kind it is cell-based, human. Conditions: Homo sapiens, PD002, 72 h, read-out: IC50 PD002.

The values below come from PMC7554145 (Journal of medicinal chemistry, 2020).

Values after ≈ are worked out from the molar mass of the structure shown. “Also recorded” adds a separate entry of the source.

Chain of DPAGT1 (Human) (Q9H3H5 whole entry): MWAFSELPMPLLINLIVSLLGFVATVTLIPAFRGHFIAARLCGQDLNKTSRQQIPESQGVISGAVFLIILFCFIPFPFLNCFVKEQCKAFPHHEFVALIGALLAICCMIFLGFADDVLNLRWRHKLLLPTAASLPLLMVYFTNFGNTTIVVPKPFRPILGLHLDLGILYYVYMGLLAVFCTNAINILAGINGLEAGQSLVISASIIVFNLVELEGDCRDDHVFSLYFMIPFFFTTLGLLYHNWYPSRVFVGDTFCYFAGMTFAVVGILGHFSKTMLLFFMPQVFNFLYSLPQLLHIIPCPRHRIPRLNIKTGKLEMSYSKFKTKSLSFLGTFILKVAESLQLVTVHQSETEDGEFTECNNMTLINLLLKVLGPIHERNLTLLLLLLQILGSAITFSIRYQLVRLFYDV

Take `CO[C@@H]1[C@H](O)[C@@H]([C@@H](O[C@H]2OC(C(=O)NCc3ccc(N4CCC(Oc5ccc(OC(F)(F)F)cc5)CC4)cc3)=C[C@H](O)[C@@H]2O)C(N)=O)O[C@H]1n1ccc(=O)[nH]c1=O`: the “antiproliferative activity against L1210, HPNE, and Vero” value in data set [1] (at 50 μM) is “did not show antiproliferative activity”. For the same compound, the “growth inhibitory activity against Mycobacterium spp.” value in data set [2] (at 50 μg/mL) is “did not show growth inhibitory activity”.
For the compound `NC[C@H]1O[C@@H](O[C@H]([C@H]2O[C@@H](n3ccc(=O)[nH]c3=O)[C@H](O)[C@@H]2O)[C@H](NCCCC(=O)NCc2ccc(N3CCC(Oc4ccc(OC(F)(F)F)cc4)CC3)cc2)C(N)=O)[C@H](O)[C@@H]1O` [APPB, Aminouridyl phenoxylpiperidinylbenzylbutanamide], in data set [3], the LD50 is on record as more than 20 mg/kg. In addition, the “selective cytotoxicity (IC50 normal cells / cancer cells)” value in data set [4] is more than 35. In the data set on DPAGT1 [5], the “DPAGT1 inhibitory activity relative to tunicamycin” value is on record as “greater than 30 times”.
With `CO[C@H]1[C@@H](O)[C@H](n2ccc(=O)[nH]c2=O)O[C@@H]1[C@@H](O[C@H]1OC(C(=O)N[C@H]2CCCCNC2=O)=C[C@H](O)[C@@H]1O)C(N)=O` [CAP, Capuramycin, reference compound], in the data set with HPNE, the IC50 was more than 50 µM.
With `CO[C@H]1[C@@H](O)[C@H](n2ccc(=O)[nH]c2=O)O[C@@H]1[C@@H](O[C@H]1OC(CNCc2ccc(N3CCC(Oc4ccc(OC(F)(F)F)cc4)CC3)cc2)=C[C@H](O)[C@@H]1O)C(N)=O` [CPPA, (2R)-2-(((2S,3S,4S)-3,4-Dihydroxy-6-(((4-(4-(4-(trifluoromethoxy)phenoxy)piperidin-1-yl)benzyl)amino)methyl)-3,4-dihydro-2H-pyran-2-yl)oxy)-2-((2S,5R)-5-(2,4-dioxo-3,4-dihydropyrimidin-1(2H)-yl)-4-hydroxy-3-methoxytetrahydrofuran-2-yl)acetamide], the “inhibition of all phosphotransferases tested in Table 1” value in [6] is “did not inhibit”.
Consider `CO[C@H]1[C@@H](O)[C@H](n2ccc(=O)[nH]c2=O)O[C@@H]1[C@@H](O[C@H]1OC(C(=O)NCc2ccc(N3CCC(Oc4ccc(OC(F)(F)F)cc4)CC3)cc2)=C[C@H](O)[C@@H]1O)C(N)=O` [CPPB, (2S,3S,4S)-2-((1R)-2-Amino-1-((2S,5R)-5-(2,4-dioxo-3,4-dihydropyrimidin-1(2H)-yl)-4-hydroxy-3-methoxytetrahydrofuran-2-yl)-2-oxoethoxy)-3,4-dihydroxy-N-(4-(4-(4-(trifluoromethoxy)phenoxy)piperidin-1-yl)benzyl)-3,4-dihydro-2H-pyran-6-carboxamide], for which, in the data set with PD002 [7] (CPPB 50 μM, same as time 0h, control (PBS) ca. 70%), the “phase area confluent of PD002 culture after 72h” value is reported as 10–13%. In addition, the “cell proliferation inhibited at time 72h” value in the data set with PD002 [7] (PD002, CPPB 0.2–20 μM) is “ca. 20%”. The cell permeability result with PD002 [7] (demonstrated by IncuCyte live cell analyses and immunofluorescence assays) is “cell-permeable”. Further, the “CA and CB, concentration in combination” value in the data set with PD002 [8] (Table 3 entry 1) is 0.10 µM; in the data set with PD002 [8] (Table 3 entry 2) it was 0.10 µM; with PD002 [8] (Table 3 entry 3), 0.20 µM; in the data set on PD002 [8] (Table 3 entry 4), 0.20 µM; in the data set with PD002 [8] (Table 3 entry 5), 0.20 µM; in the data set with PD002 [8] (Table 3 entry 6), 2.0 µM. Besides, the “CA and CB, concentration in combination” value in the data set with PD002 [8] (Table 3 entry 7) and in the data set on PD002 [8] (Table 3 entry 8) was 2.0 µM throughout. For the same compound, in the data set on PD002 [8] (checkerboard), the “synergistic effect with paclitaxel against PD002” value is given as “strong synergistic effects”. Besides, in data set [1] (MTT assays, 20 μM), the “viability of all pancreatic cancers tested” value is on record as “remained viable”. Also, the “cytotoxicity against a series of cancer and healthy cell lines” value in [1] (at 10 μM or higher concentrations) is “not cytotoxic”. The “antiproliferative activity against L1210, HPNE, and Vero” value in data set [1] (at 50 μM) is “did not show antiproliferative activity”. The IC50 in data set [1] (read-out: IC50 growth inhibition of solid cancer cell lines (span)) is 15 to 45 µM; with HPNE, more than 50 µM. Further, the “inhibition of migration of SiHa” value in the data set on SiHa is on record as “strongly inhibited migration”. This compound yielded a minimum inhibitory concentration (MIC) in data set [2] of 6.25 to 12.5 µg/mL (≈ 7.74 to 15.5 µM). Further, the “Snail expression level in HCT-116” value in the data set on Snail is given as “not noticeably changed”. In the data set with PD002 [9], the wound-healing rate entry is “approximately 20%”. Also, the “inhibition of cell migration of HCT-116” value in the data set with HCT-116 was “not inhibited; also recorded: did not inhibit migration”. Moreover, the “inhibition of cell migration of PD002 (Boyden chamber)” value in the data set on PD002 [10] was “inhibited on a higher level”. In the data set on DPAGT1 [11] (0.2 μM), the “DPAGT1 expression in pancreatic cancer cell lines” value is “apparently inhibited”. Also, in the data set with DPAGT1 [11] (Western blot, CPPB 0.1–20 μM), the “DPAGT1 expression levels of HCT-116 remaining” value is given as 20–90%. Also, the “E-Cadherin expression level of PANC-1” value with E-Cadherin (Western blot, 0–2.0 μM) is “the same expression level”. Besides, the “E-Cadherin expression levels of PD002, PANC-1, and HCT-116” value in the data set with E-Cadherin (immunofluorescence, 0.05–2.0 μM) is given as “not changed significantly”. The “DPAGT1 inhibitory activity relative to tunicamycin” value on DPAGT1 (Human) is listed as ~ 7.5 times.
Turning to `CO[C@@H]1[C@H](O)[C@@H]([C@@H](O[C@H]2OC(CNCc3ccc(N4CCC(Oc5ccc(OC(F)(F)F)cc5)CC4)cc3)=C[C@H](O)[C@@H]2O)C(N)=O)O[C@H]1n1ccc(=O)[nH]c1=O` [I-CPPA, (2R)-2-(((2S,3S,4S)-3,4-Dihydroxy-6-(((4-(4-(4-(trifluoromethoxy)phenoxy)piperidin-1-yl)benzyl)amino)methyl)-3,4-dihydro-2H-pyran-2-yl)oxy)-2-((2S,5R)-5-(2,4-dioxo-3,4-dihydropyrimidin-1(2H)-yl)-3-hydroxy-4-methoxytetrahydrofuran-2-yl)acetamide], in data set [6], the “inhibition of all phosphotransferases tested in Table 1” value was “did not inhibit”.
As for `CO[C@H]1[C@@H](OC)[C@H](n2ccc(=O)[nH]c2=O)O[C@@H]1[C@@H](O[C@H]1OC(C(=O)N[C@H]2CCCCNC2=O)=C[C@H](O)[C@@H]1O)C(N)=O` [OM-CAP, O-Methyl capuramycin], the “cytotoxicity against healthy cells (e.g., Vero and HPNE cells)” value in data set [1] (at 50 μM) is reported as “does not show cytotoxicity”. The IC50 in the data set on MraY/MurX and in the data set with HPNE was more than 50 µM each time.
As for `CC(=O)O[C@H]1C(=O)[C@@]2(C)[C@H]([C@H](OC(=O)c3ccccc3)[C@]3(O)C[C@H](OC(=O)[C@H](O)[C@@H](NC(=O)c4ccccc4)c4ccccc4)C(C)=C1C3(C)C)[C@]1(OC(C)=O)CO[C@@H]1C[C@@H]2O` [Paclitaxel, reference compound], the “CA and CB, concentration in combination” value in the data set with PD002 [8] (Table 3 entry 1) amounted to 0.63 µM; in the data set on PD002 [8] (Table 3 entry 2), 0.16 µM; in the data set on PD002 [8] (Table 3 entry 3) it was 0.0049 µM; in the data set on PD002 [8] (Table 3 entry 4) it was 0.020 µM; in the data set with PD002 [8] (Table 3 entry 6), 0.020 µM. Moreover, the IC50 in the data set with PD002 [12] amounted to 1.25 µM.
